From patent US6737406B1, “Cryptic peptides and method for their identification” (Circassia, Ltd., priority 1996, dated 2004)

Legend:
T lymphocytes = assay: Inhibition of T cell proliferation to FC1P peptides, tritiated thymidine incorporation (Example 5); assay type: cell-based; conditions: added at 10^−6M or 10^−9M; freshly isolated T lymphocytes cultured with FC1P
Experimental: Freshly isolated T lymphocytes were cultured in vitro with concentrations of FC1P peptides, previously determined as being optimal for the induction of proliferative and/or other responses in these cells. To certain of the culture wells were added, the glucocorticosteroid Dexamethazone or fluticazone, these were added to cultures at dilutions of 10^−6M or 10^−9M. After culture, cells were labelled with tritiated thymidine to enable quantification of DNA synthesis and thus cellular proliferation.

[1] = tested on: volunteer cat-allergic asthmatic; assay: Intradermal injection of FC1P into a volunteer cat-allergic asthmatic, lung function (Example 4); assay type: in vivo, human; conditions: 40 μg FC1P intradermally into each forearm
Experimental: 40 μg of highly purified FC1P peptides was injected intradermally into each forearm of a volunteer cat-allergic asthmatic. […] The drop in FEV1 was reversed by the administration of β2 agonist and inhaled corticosteroid at 8 hours. The results of this are shown diagrammatically in FIG. 6.

[2] = tested on: peripheral blood mononuclear cells; assay: Primary proliferative response of freshly isolated PBMC to FC1P (Example 3); assay type: cell-based, human; conditions: 10^5 cells per well, 6 days, cat allergic asthmatics (CAA) compared with non-cat allergic asthmatics (NCA)
Experimental: Freshly isolated peripheral blood mononuclear cells were cultured at 10^5 cells per well for 6 days prior to labelling with tritiated thymidine for measurement of cellular proliferation.

Row | Compound | inhibition of T cell proliferation to FC1P peptides (tritiated thymidine incorporation) (T lymphocytes) | late-phase asthmatic reaction ([1]; cat-allergic asthmatic) | time of late-phase asthmatic reaction after administration ([1]; cat-allergic asthmatic) | Lung function (quantified as FEV1) ([1]; over the next several hours) | primary proliferative responses (cellular proliferation, tritiated thymidine) [2]
1 | C[C@@H]1C[C@H]2[C@@H]3CCC4=CC(=O)C=C[C@]4(C)[C@@]3(F)[C@@H](O)C[C@]2(C)[C@@]1(O)C(=O)CO [dexamethazone] | inhibition of T cell proliferation |  |  |  | 
2 | FC1P: three synthetic peptides derived from the sequence of Fel d I, collectively FC1P (SEQ ID NO:23, 5 and 24) (chain 1 LFLTGTPDEYVEQVAQY; chain 2 EQVAQYKALPVVLENA; chain 3 KALPVVLENARILKNCV; listed as Felis domesticus) |  | induced an isolated late-phase asrimatic reaction | approximately three | fell and remained low | greater primary proliferative responses
3 | C[C@@H]1C[C@H]2[C@@H]3C[C@H](F)C4=CC(=O)C=C[C@]4(C)[C@@]3(F)[C@@H](O)C[C@]2(C)[C@@]1(O)C(=O)SCF [fluticazone] | inhibition of T cell proliferation |  |  |  | 
